# Where “and” joins values, the source holds several entries; their conditions need not be identical. Equal values may be shown once. Read-outs that look alike come from different tables or passages of the source.
# Columns and labels:
# [1] = test system: PGA-1 cells; experiment: alamarBlue cell viability assay; conditions: for IC50: read-out: PGA-1 IC50
# [2] = test system: HG-3 cells; experiment: alamarBlue cell viability assay; conditions: for IC50: HG-3, 24 h, read-out: HG-3 IC50
# [3] = test system: HG-3 cells
# [4] = test system: PGA-1 cells; conditions: 10 µM
# [5] = test system: SR; experiment: NCI-60 five-dose assay; type: cell-based, human
# [6] = test system: leukemia cell panel; experiment: NCI-60 five-dose assay, leukemia cell panel mean; type: cell-based, human; conditions: mean across the six leukemia cell lines
# [7] = test system: NCI 60 cancer cell line panel; experiment: NCI-60 five-dose assay, full-panel means; type: cell-based; conditions: for GI50: read-out: Mean GI50 (MID GI50, full-panel mean-graph mid-point)
# Method: A number of our most promising compounds identified through preliminary cell viability testing (23c, 23d, 23f, 23h, 23l, 23m, 23n, 23o, 24f, 24l, 25n and 26n) were selected for NCI drug screening in the 60-cell-line panel. The panel includes nine subcategories based on cancer tissue types, which include leukemia, ovarian, central nervous system, breast, lung, prostate, skin, renal and colon cancer. The compounds were initially assessed in a one-dose assay at a fixed treatment concentration of 10 µM. The compounds selected for further investigation were progressed to a five-dose assay across the concentration ranges of 0.01, 0.1, 1, 10 and 100 µM [72]. The endpoints assessed in the screening protocol were GI50, TGI and LC50 [72].
# [8] = test system: HL-60(TB); experiment: NCI-60 five-dose assay; type: cell-based, human
# [9] = test system: HG-3 and PGA-1 cell lines; experiment: alamarBlue cell viability assay, mean of both CLL cell lines; type: cell-based, human; conditions: mean of HG-3 and PGA-1
# [10] = test system: CCRF-CEM; experiment: NCI-60 five-dose assay; type: cell-based, human
# [11] = test system: RPMI-8226; experiment: NCI-60 five-dose assay; type: cell-based, human
# [12] = test system: K-562; experiment: NCI-60 five-dose assay; type: cell-based, human
# [13] = test system: MOLT-4; experiment: NCI-60 five-dose assay; type: cell-based, human
# [14] = HPLC stability study in phosphate buffers; type: physicochemical; conditions: for Half-life pH 4 / % remaining 24 h pH 4: pH 4 buffer; for Half-life pH 4 / % remaining 24 h pH 4 / Half-life pH 7.4 / % remaining 24 h pH 7.4 / Half-life pH 9 / % remaining 24 h pH 9: 37 °C; for % remaining 24 h pH 4 / % remaining 24 h pH 7.4 / % remaining 24 h pH 9: HPLC; for Half-life pH 7.4 / % remaining 24 h pH 7.4: pH 7.4 buffer; for Half-life pH 9 / % remaining 24 h pH 9: pH 9 buffer
# Method: A preliminary stability study was carried out on selected chalcones, maleic anhydride and maleimide adducts at acidic, neutral and basic conditions (pH 4, 7.4 and 9) using HPLC to determine suitability for further preclinical investigations. […] A possible degradation route for the maleimide 23n could be through the hydrolysis of the cyclic imide of the maleimide ring, leading to the resultant amic acid product.
# All samples were analyzed using acetonitrile–water (80:20%, 70:30%, 60:40% isocratic) as the mobile phase over 10 min and a flow rate of 1 mL/min. Stock solutions were prepared by dissolving 5 mg of compounds in a mobile phase ([(acetonitrile (80%): water (20%)], 10 mL). Anhydride 22h was not detected at its retention time of 5.2 min at pH 9.0. The data presented represent the results of single experiments.
# The HPLC stability studies for compounds 21a, 21i, 22h, 23a, 23g, 23n, 24a, 24h, 26a and 26n were performed using a Symmetry® column (C18, 5 µm, 4.6 × 150 mm), a Waters 2487 Dual Wavelength Absorbance detector, and an HPLC pump: Waters 1525 binary and Autosampler; Waters 717 plus (Waters Corporation, Milford, MA, USA), mobile phase [(acetonitrile (80%) and water (20%)] with a typical run time of 10 min and a flow rate of 1 mL/min with detection at 254 nm. The selected compounds 21a, 21i, 22h, 23a, 23g, 23n, 24a, 24h, 26a and 26n (5 mg) in the mobile phase (10 mL) provided the stock solution for the analysis. The phosphate buffers were prepared at pH values of 4, 7.4 and 9, as described in the British Pharmacopoeia monograph 2019. The stock solution (30 µL) was added to the appropriate buffer (1 mL) and retained at 37 °C. Samples were then analyzed over the following 24-h period at selected time intervals (t = 0 min, 5 min, 30 min, 60 min, 90 min, 120 min and 24 h).
# [15] = mean over NCI 60 cell line panel
compound,measurement,setting,value
"O=C(/C=C/C12c3ccccc3C(c3ccccc31)C1C(=O)N(c3ccc(C(=O)c4ccccc4)cc3)C(=O)C12)c1ccncc1 (stereo not shown) [Compound 26m, (E)-13-(4-Benzoylphenyl)-9-(3-oxo-3-(pyridin-4-yl)prop-1-en-1-yl)-9,10-dihydro-9,10-[3,4]epipyrroloanthracene-12,14-dione]",decrease in cell viability compared to 26f,"[1]; PGA-1, 1 µM",64%
same,decrease in cell viability compared to 26f,"[2]; HG-3, 1 µM",64%
same,decrease in cell viability compared to 26f,"[2]; HG-3, 10 µM",59%
same,cell viability,[3]; 10 µM,27%
same,cell viability,[4],17%
"(E)-13-(4-Chlorophenyl)-9-(3-oxo-3-(pyridin-4-yl)prop-1-en-1-yl)-9,10-dihydro-9,10-[3,4]epipyrroloanthracene-12,14-dione [Compound 25m]",cell viability,[3]; 10 µM,8%
same,cell viability,[4],28%
"O=C(/C=C/C12c3ccccc3C(c3ccccc31)C1C(=O)NC(=O)C12)c1ccccc1 (stereo not shown) [Compound 23f, (E)-9-(3-oxo-3-phenylprop-1-en-yl)-9,10-dihydro-9,10-[3,4]epipyrroloanthracene-12,14-dione]",GI50,[5]; Homo sapiens,1570 nM
same,GI50,[6]; Homo sapiens,1810 nM
same,GI50,"[7]; Homo sapiens, mean over NCI 60 cell line panel",1820 nM
same,CC50,"[7]; Homo sapiens, mean over NCI 60 cell line panel, read-out: Mean LC50 (MID LC50)",14.8 µM
same,"Mean TGI (MID TGI, total growth inhibition)",[7]; [15],4.570 µM
same,IC50,"[1]; Homo sapiens, 24 h",11300 nM
same,viability at 10 µM,"[1]; Homo sapiens, 24 h, read-out: cell viability",13.9%
same,GI50,"[8]; Homo sapiens, HL-60, HL-60(TB)",1500 nM
same,IC50,"[9]; Homo sapiens, CLL cell",7.43 µM
same,GI50,[10]; Homo sapiens,2160 nM
same,GI50,"[11]; Homo sapiens, RPMI-8226, RPMI-8226",1520 nM
same,cell viability,"[2]; HG-3, 10 µM, 24 h, vehicle = 100%, 10 µM",2%
same,IC50,[2]; Homo sapiens,3.55 µM
same,GI50,"[12]; Homo sapiens, K562, K-562",1940 nM
same,GI50,"[13]; Homo sapiens, MOLT-4, MOLT-4",2170 nM
O=C(/C=C/C12c3ccccc3C(c3ccccc31)C1C(=O)NC(=O)C12)c1ccc(I)cc1 (stereo not shown) [Compound 23g],recovery at 24 h,"[14]; over the pH range studied (pH 4, 7.4 and 9)",< 50%
same,Half-life pH 4,[14],11.3 h
same,% remaining 24 h pH 4,[14],7.98%
same,Half-life pH 7.4,[14],8.9 h
same,% remaining 24 h pH 7.4,[14],11.02%
same,Half-life pH 9,[14],5.5 h
same,% remaining 24 h pH 9,[14],10.50%
same,IC50,"[1]; PGA-1, 24 h",2770 nM
same,IC50,[9],3.62 µM
same,IC50,[2],4.47 µM
same,cell viability,[3]; 10 µM,0%
same,cell viability,[4],2%
"O=C(C=CC12c3ccccc3C(c3ccccc31)C1C(=O)N(c3ccccc3)C(=O)C12)c1ccco1 (stereo not shown) [Compound 24o, 9-(E)-3-(Furan-2-yl)-3-oxoprop-1-en-1-yl)-13-phenyl-9,10-dihydro-9,10-[3,4]epipyrroloanthracene-12,14-dione]",cell viability,[3]; 10 µM,3%
same,cell viability,[4],9%
O=C(/C=C/C12c3ccccc3C(c3ccccc31)C1C(=O)NC(=O)C12)c1ccncc1 (stereo not shown) [Compound 23m],GI50,[5],1760 nM
same,GI50,[6],2080 nM
same,CC50,[7],28.2 µM
same,"Mean TGI (MID TGI, total growth inhibition)",[7]; [15],7.760 µM
same,GI50,[7]; [15],2510 nM
same,GI50,[8]; HL-60(TB),1760 nM
same,GI50,[10],2390 nM
same,GI50,[11]; RPMI-8226,2110 nM
same,GI50,[12]; K-562,1880 nM
same,GI50,[13]; MOLT-4,2570 nM
"O=C(C=CC12c3ccccc3C(c3ccccc31)C1C(=O)N(c3ccc(Cl)cc3)C(=O)C12)c1ccco1 (stereo not shown) [Compound 25o, (E)-13-(4-Chlorophenyl)-9-(3-(furan-2-yl)-3-oxoprop-1-en-1-yl)-9,10-dihydro-9,10-[3,4]epipyrroloanthracene-12,14-dione]",cell viability,[3]; 10 µM,5%
same,cell viability,[4],14%
"O=C(C=CC12c3ccccc3C(c3ccccc31)C1C(=O)N(c3ccc(Cl)cc3)C(=O)C12)c1ccc(I)cc1 (stereo not shown) [Compound 25g, (E)-13-(4-Chlorophenyl)-9-(3-(4-iodophenyl)-3-oxoprop-1-en-1-yl)-9,10-dihydro-9,10-[3,4]epipyrroloanthracene-12,14-dione]",cell viability,[4],33%
"(E)-13-(4-Chlorophenyl)-9-(3-(4-nitrophenyl)-3-oxoprop-1-en-1-yl)-9,10-dihydro-9,10-[3,4]epipyrroloanthracene-12,14-dione [Compound 25b]",cell viability,[3]; 10 µM,35%
same,cell viability,[4],34%
O=C(/C=C/C12c3ccccc3C(c3ccccc31)C1C(=O)NC(=O)C12)c1ccco1 (stereo not shown) [Compound 23o],GI50,[6],1640 nM
same,CC50,[7],11 µM
same,"Mean TGI (MID TGI, total growth inhibition)",[7]; [15],3.890 µM
same,GI50,[7]; [15],1780 nM
same,GI50,[8]; HL-60(TB),320 nM
same,GI50,[10],1890 nM
same,GI50,[11]; RPMI-8226,1680 nM
same,GI50,[12]; K-562,2570 nM
same,GI50,[13]; MOLT-4,1770 nM
O=C(/C=C/C12c3ccccc3C(c3ccccc31)C1C(=O)NC(=O)C12)c1ccc(Cl)cc1Cl (stereo not shown) [Compound 23d],GI50,[5],1250 nM
same,GI50,[6],1590 nM
same,CC50,[7],29.5 µM
same,"Mean TGI (MID TGI, total growth inhibition)",[7]; [15],7.580 µM
same,GI50,[7]; [15],2510 nM
same,GI50,[8]; HL-60(TB),1580 nM
same,GI50,[10],1240 nM
same,GI50,[11]; RPMI-8226,1100 nM
same,GI50,[12]; K-562,2190 nM
same,GI50,[13]; MOLT-4,2160 nM
"O=C(C=CC12c3ccccc3C(c3ccccc31)C1C(=O)N(c3ccc(Cl)cc3)C(=O)C12)c1ccc(Br)cc1 (stereo not shown) [Compound 25a, (E)-9-(3-(4-Bromophenyl)-3-oxoprop-1-en-1-yl)-13-(4-chlorophenyl)-9,10-dihydro-9,10-[3,4]epipyrroloanthracene-12,14-dione]",cell viability,[4],33%
"O=C(C=CC12c3ccccc3C(c3ccccc31)C1C(=O)N(c3ccccc3)C(=O)C12)c1ccc([N+](=O)[O-])cc1 (stereo not shown) [Compound 24b, 9-(E)-3-(4-Nitrophenyl)-3-oxoprop-1-en-1-yl)-13-phenyl-9,10-dihydro-9,10-[3,4]epipyrroloanthracene-12,14-dione]",cell viability,[3]; 10 µM,10%
same,cell viability,[4],22%
"O=C(/C=C/C12c3ccccc3C(c3ccccc31)C1C(=O)N(c3ccc(C(=O)c4ccccc4)cc3)C(=O)C12)c1ccc(Br)cc1 (stereo not shown) [Compound 26a, (E)-13-(4-Benzoylphenyl)-9-(3-(4-bromophenyl)-3-oxoprop-1-en-1-yl)-9,10-dihydro-9,10-[3,4]epipyrroloanthracene-12,14-dione]",Half-life pH 4,[14],> 24 h
same,% remaining 24 h pH 4,[14],64% and 63.95%
same,Half-life pH 7.4,[14],> 24 h
same,% remaining 24 h pH 7.4,[14],61% and 61.03%
same,Half-life pH 9,[14],> 24 h
same,% remaining 24 h pH 9,[14],66%
same,decrease in cell viability compared to 26f,"[1]; PGA-1, 1 µM",70%
same,decrease in cell viability compared to 26f,"[1]; PGA-1, 10 µM",20%
same,decrease in cell viability compared to 26f,"[2]; HG-3, 1 µM",64%
same,decrease in cell viability compared to 26f,"[2]; HG-3, 10 µM",29%
same,cell viability,[3]; 1 µM,55%
same,cell viability,[3]; 10 µM,31%
same,cell viability,[4],29%
"O=C(c1ccccc1)c1ccc(N2C(=O)C3C4c5ccccc5C(C=CC(=O)c5ccco5)(c5ccccc54)C3C2=O)cc1 (stereo not shown) [Compound 26o, (E)-13-(4-Benzoylphenyl)-9-(3-(furan-2-yl)-3-oxoprop-1-en-1-yl)-9,10-dihydro-9,10-[3,4]epipyrroloanthracene-12,14-dione]",cell viability,[3]; 10 µM,15%
same,cell viability,[4],9%
O=C(/C=C/C12c3ccccc3C(c3ccccc31)C1C(=O)NC(=O)C12)c1ccc2ccccc2c1 (stereo not shown) [Compound 23p],IC50,"[1]; PGA-1, 24 h",1300 nM
same,IC50,[9],1.36 µM
same,IC50,[2],1.41 µM
same,cell viability,[3]; 1 µM,46%
same,cell viability,[3]; 10 µM,0%
same,cell viability,[4],0%

# — PMC11359702, “Synthesis and Biochemical Evaluation of Ethanoanthracenes and Related Compounds: Antiproliferative and Pro-Apoptotic Effects in Chronic Lymphocytic Leukemia (CLL)” (Pharmaceuticals, 2024)
